Values of other authors, collected in EP4512398A1, “FLURALANER FOR USE IN METHODS OF TREATMENT AND PREVENTION OF SEA LICE INFESTATION IN FISH” (Bimeda Animal Health Limited, priority 2023, dated 2025).

Test system: parasites with resistance to organophosphates, pyrethroids and carbamates
Details: bio-assays, background statement; cited from earlier work

SMILES: Cc1cc(C2=NOC(c3cc(Cl)cc(Cl)c3)(C(F)(F)F)C2)ccc1C(=O)NCC(=O)NCC(F)(F)F (stereo not shown) [fluralaner, Fluralaner]
- efficacy against parasites with resistance to organophosphates, pyrethroids and carbamates: effective
